Data set [1] concerns Escherichia coli. Briefly: Antibacterial activity against Escherichia coli assessed as bacterial growth inhibition incubated for 18 to 20 hrs by agar dilution method. Format: functional. The note with it: time 18-20 hrs.
The subject of data set [2] is Escherichia coli. Description: Antibacterial activity against Escherichia coli NCTC 10418 assessed as bacterial growth inhibition incubated for 18 to 20 hrs by agar dilution method. Particulars: time 18-20 hrs. Format: functional.
Data set [3] has as its system Escherichia coli. Description: Antibacterial activity against Escherichia coli assessed as bacterial growth inhibition incubated for 16 to 24 hrs by absorbance analysis. Format: functional. The note with it: time 16-24 hrs.
In data set [4] the test system is Escherichia coli. Description: Antibacterial activity against Escherichia coli ATCC 35218 assessed as bacterial growth inhibition incubated for 18 hrs by agar dilution method. Format: functional. Background: In agar dilution, organisms are placed on agar that contains the substance at set levels.
In data set [5] the test system is Escherichia coli. Briefly: Antibacterial activity against Escherichia coli KC-14 infected in po dosed mouse assessed as bacterial growth inhibition. Format: functional. The note with it: Escherichia coli, KC-14, po, read-out: ED50.
The subject of data set [6] is Escherichia coli. Description: Antibacterial activity against Escherichia coli KC-14 assessed as bacterial growth inhibition. Format: functional.
Data set [7] in a line: Cmax in mouse at 20 mg/kg, po. Format: ADME, organism-based. Set-up: dose 20 mg/kg, route po. Particulars: in vivo.
Data set [8] is described as follows: Half life in mouse at 20 mg/kg, po. The class given is ADME, organism-based. The note with it: in vivo.
A short description of data set [9]: AUC(0 to infinity) in mouse at 20 mg/kg, po. The class given is ADME, organism-based. Set-up: dose 20 mg/kg, route po. Particulars: in vivo.
Data set [10] relates to Escherichia coli. Description: Antibacterial activity against Escherichia coli TolC assessed as bacterial growth inhibition. Format: functional.
Data set [11] relates to Escherichia coli. Briefly: Antibacterial activity against Escherichia coli DH5alpha assessed as bacterial growth inhibition. Format: functional.
The subject of data set [12] is Escherichia coli. Briefly: Antibacterial activity against Escherichia coli DC0 assessed as bacterial growth inhibition by agar dilution method. The class given is functional.
Data set [13] concerns Escherichia coli. Briefly: Antibacterial activity against Escherichia coli DC2 assessed as bacterial growth inhibition by agar dilution method. Format: functional.
The nature of data set [14]: Half life in marmoset at 3 mg/kg, iv. The class given is ADME, organism-based. Particulars: callitrichinae sp., in vivo.
Data set [15] can be described thus: AUC in marmoset at 3 mg/kg, iv. Format: ADME, organism-based. On the set-up: dose 3 mg/kg, route iv. The note with it: callitrichinae sp., in vivo.
Data set [16] deals with Escherichia coli. Briefly: Antibacterial activity against Escherichia coli ATCC 700603 assessed as bacterial growth inhibition by agar dilution method. The class given is functional.
Data set [17] concerns Escherichia coli. Description: Antibacterial activity against Escherichia coli H560 assessed as bacterial growth inhibition. Format: functional.
For data set [18], the system named is Escherichia coli. Briefly: Antibacterial activity against Escherichia coli assessed as bacterial growth inhibition by agar dilution method. The class given is functional.
Data set [19] deals with Escherichia coli. Briefly: Antibacterial activity against Escherichia coli NCDC 134 assessed as bacterial growth inhibition. The class given is functional.
Data set [20] concerns Escherichia coli. Description: Antibacterial activity against Escherichia coli assessed as bacterial growth inhibition. Format: functional.
The subject of data set [21] is Escherichia coli. Description: Antibacterial activity against Escherichia coli JM109 assessed as bacterial growth inhibition. The class given is functional.
Data set [22] deals with Escherichia coli. Description: Antibacterial activity against Escherichia coli assessed as bacterial growth inhibition incubated for 24 hrs by agar streak dilution method. The class given is functional.
Data set [23] concerns Escherichia coli. Description: Antibacterial activity against Escherichia coli assessed as bacterial growth inhibition incubated for 18 hrs by twofold serial dilution assay. Format: functional.
Data set [24] deals with Escherichia coli. Briefly: Antibacterial activity against Escherichia coli assessed as bacterial growth inhibition incubated for 18 hrs by agar dilution method. The class given is functional.

26 compounds from ChEMBL document CHEMBL5244219, “Recent developments of quinolone-based derivatives and their activities against Escherichia coli” (Eur J Med Chem, 2018) can be followed below.

Molecules are shown by their SMILES. Converted amounts (≈) assume the structure as drawn.

As a reminder, the MIC is the lowest concentration found to suppress growth. For `CCn1cc(C(=O)O)c(=O)c2cc(F)c(N3CCN(CN4C(=O)/C(=N\c5ncc(Cc6cc(OC)c(OC)c(OC)c6)c(N)n5)c5ccccc54)CC3)cc21`, the MIC with Escherichia coli [1] was found to be 0.0763 µg/mL (≈ 0.102 µM).
`CCn1cc(C(=O)O)c(=O)c2cc(F)c(N3CCN(CN4C(=O)C(=O)c5cc(Br)ccc54)CC3)cc21`: the minimal inhibitory concentration (MIC) in the data set on Escherichia coli [2] is at most 0.018 µg/mL.
On to `Cc1[nH]c2ccccc2c(=O)c1CC(=O)O`, for which, in the data set with Escherichia coli [3], the MIC came out at 8.97 µg/mL (≈ 41.3 µM).
As to `COc1cc(Cc2cnc(/N=C3\C(=O)N(CN4CCN(c5cc6c(cc5F)c(=O)c(C(=O)O)cn6C5CC5)CC4)c4ccccc43)nc2N)cc(OC)c1OC`, the MIC with Escherichia coli [1] amounted to 0.0095 µg/mL (≈ 0.0125 µM).
For `COc1cccc(CO/N=C2\CCN(c3c(F)cc4c(=O)c(C(=O)O)cn(C5CC5)c4c3OC)CC2N)c1OC` (stereo not drawn), the minimum inhibitory concentration (MIC) with Escherichia coli [4] is below 0.008 µg/mL.
For the compound `COc1ccccc1CO/N=C1\CCN(c2c(F)cc3c(=O)c(C(=O)O)cn(C4CC4)c3c2OC)CC1N` (stereo not drawn), the MIC with Escherichia coli [4] is below 0.008 µg/mL.
As for `COc1cc(Cc2cnc(/N=C3\C(=O)N(CN4CCN(c5c(F)cc6c(=O)c(C(=O)O)cn(C7CC7)c6c5OC)CC4C)c4ccccc43)nc2N)cc(OC)c1OC` (stereo not drawn), in the data set with Escherichia coli [1], the minimum inhibitory concentration (MIC) is 0.02 µg/mL (≈ 0.0248 µM).
For orientation: ED50 means the dose that gives a 50% effect, or the effect in half of the subjects. By Cmax is commonly meant the highest concentration seen after dosing. As usually defined, the half-life is the time in which the quantity being followed falls by half. High values mean slow decline, low ones rapid decline. A word on the AUC(0-inf): it is the area under the concentration-time curve extrapolated to infinity. `COc1c(N2CCN(C)CC2)c(F)cc2c(=O)c(C(=O)O)c3n(c12)C(C)S3` (stereo not drawn): the median effective dose (ED50) in the data set on Escherichia coli [5] was determined as 1.28 mg/kg. In addition, the MIC in the data set with Escherichia coli [6] was determined as 0.1 µg/mL (≈ 0.254 µM). The compound further registered a Cmax in data set [7] of 840 ng/mL. In data set [8], this compound gave a half-life of 4.9 h. The compound also showed an AUC(0-inf) in [9] of 2700 ng·h/mL.
As for `COc1c(N2CCN(C)CC2)c(F)cc2c(=O)c(C(=O)O)c3n(c12)C(CF)S3` (stereo not drawn), the ED50 with Escherichia coli [5] is 0.76 mg/kg. Moreover, the MIC in the data set with Escherichia coli [6] is 0.025 µg/mL (≈ 0.0608 µM). This compound also registered a Cmax in data set [7] of 3200 ng/mL. This compound gave a half-life in data set [8] of 1.2 h. Also, the AUC(0-inf) in data set [9] is 3500 ng·h/mL.
The matching figures for `CN1CCN(c2cc3c(cc2F)c(=O)c(C(=O)O)c2n3C(CF)S2)CC1` (stereo not drawn): 0.85 mg/kg, 0.05 µg/mL (≈ 0.131 µM), 4400 ng/mL, 1.5 h and 6900 ng·h/mL.
For `CCn1cc(C(=O)O)c(=O)c2cc(F)c(N3CCN(CN4C(=O)/C(=N/NC(N)=S)c5cc(Br)ccc54)CC3)cc21`, the MIC in the data set with Escherichia coli [2] was at most 0.018 µg/mL.
Usually MIC50 stands for the lowest concentration that inhibits either 50% of growth or 50% of the strains tested, depending on the study. Consider `Cc1[nH]c2ccccc2c(=O)c1C`, for which the MIC50 in the data set with Escherichia coli [10] was above 1.41 µg/mL; in the data set on Escherichia coli [11], above 64 µg/mL.
In the case of `CCn1cc(C(=O)O)c(=O)c2cc(F)c(N3CCN(CN4C(=O)/C(=N/NC(N)=S)c5cc(Cl)ccc54)CC3)cc21`, in the data set with Escherichia coli [2], the minimum inhibitory concentration (MIC) was at most 0.018 µg/mL.
Turning to `CCn1cc(C(=O)O)c(=O)c2cc(F)c(N3CCN(CN4C(=O)/C(=N/NC(N)=S)c5ccccc54)CC3)cc21`, the minimal inhibitory concentration (MIC) in the data set on Escherichia coli [2] was at most 0.018 µg/mL.
For the compound `Cc1[nH]c2ccc([N+](=O)[O-])cc2c(=O)c1CC(=O)O`, in the data set with Escherichia coli [3], the minimum inhibitory concentration (MIC) was found to be 8.97 µg/mL (≈ 34.2 µM).
With `CCn1cc(C(=O)O)c(=O)c2cc(F)c(N3CCN(CN4C(=O)/C(=N\c5ncc(Cc6cc(OC)c(OC)c(OC)c6)c(N)n5)c5ccccc54)C(C)C3)c(F)c21` (stereo not drawn), the minimal inhibitory concentration (MIC) in the data set on Escherichia coli [1] was 0.305 µg/mL (≈ 0.39 µM).
A word on the AUC: it is concentration integrated over time. A higher AUC goes with high exposure. In the case of `CC(C)(O/N=C(\C(=O)N[C@@H]1C(=O)N2C(C(=O)[O-])=C(C[n+]3ccccc3)CS[C@H]12)c1csc(N)n1)C(=O)O` [CEFTAZIDIME], the MIC in the data set with Escherichia coli [12] and in the data set with Escherichia coli [13] was 0.06 µg/mL (≈ 0.11 µM) each time. The compound also gave a half-life in data set [14] of 0.7 h. The compound also registered an AUC in data set [15] of 14000 ng·h/mL.
Consider `NC1CCN(c2c(F)cc3c(=O)c(C(=O)O)cn(C4CC4)c3c2Cl)C1` (stereo not drawn) [CLINAFLOXACIN], for which the MIC in the data set with Escherichia coli [16] was determined as 1 µg/mL (≈ 2.73 µM).
For the compound `Cc1c(N2C[C@@H](F)[C@@H](C3(N)CC3)C2)c(F)c(N)c2c(=O)c(C(=O)O)cn([C@@H]3C[C@@H]3F)c12` [DQ-113], the MIC with Escherichia coli [17] is at most 0.003 µg/mL.
Usually MIC90 stands for an inhibitory concentration at the 90% level, which refers to growth in some studies and to a panel of isolates in others. As for `C[C@H]1NCc2cc(-c3ccc4c(=O)c(C(=O)O)cn(C5CC5)c4c3OC(F)F)ccc21` [GARENOXACIN], in the data set with Escherichia coli [18], the MIC90 stood at 4 µg/mL (≈ 9.38 µM).
Regarding `COc1c(N2CCNC(C)C2)c(F)cc2c(=O)c(C(=O)O)cn(C3CC3)c12` (stereo not drawn) [GATIFLOXACIN], the MIC came to 100 µg/mL (≈ 266 µM) in the data set on Escherichia coli [19], 0.015 µg/mL (≈ 0.04 µM) in the data set with Escherichia coli [1] and 0.006 µg/mL (≈ 0.016 µM) with Escherichia coli [17]. Also, the MIC90 in the data set with Escherichia coli [18] was 4 µg/mL (≈ 10.7 µM).
`CCn1cc(C(=O)O)c(=O)c2cc(F)c(N3CCNC(C)C3)c(F)c21` (stereo not drawn) [LOMEFLOXACIN]: in the data set with Escherichia coli [1], the MIC was determined as 0.02 µg/mL (≈ 0.0569 µM).
Turning to `COc1c(N2C[C@@H]3CCCN[C@@H]3C2)c(F)cc2c(=O)c(C(=O)O)cn(C3CC3)c12` [MOXIFLOXACIN], the MIC with Escherichia coli [10] is 11.5 µg/mL (≈ 28.7 µM); in the data set with Escherichia coli [17], 0.006 µg/mL (≈ 0.0149 µM). In addition, the MIC90 in the data set on Escherichia coli [18] was 4 µg/mL (≈ 9.96 µM).
In the case of `CCn1cc(C(=O)O)c(=O)c2cc(F)c(N3CCNCC3)cc21` [NORFLOXACIN], the minimum inhibitory concentration (MIC) in the data set on Escherichia coli [16] is 4 µg/mL (≈ 12.5 µM); with Escherichia coli [20], 0.1 µg/mL (≈ 0.313 µM); in the data set on Escherichia coli [21], 1 µg/mL (≈ 3.13 µM); in the data set with Escherichia coli [22] it was 6.25 µg/mL (≈ 19.6 µM); in the data set with Escherichia coli [19] it was 25 µg/mL (≈ 78.3 µM); in the data set on Escherichia coli [23], 0.25 µg/mL (≈ 0.783 µM). The MIC with Escherichia coli [1] amounted to 0.31 µg/mL (≈ 0.971 µM).
Turning to `N[C@@H]1CN(c2c(F)cc3c(=O)c(C(=O)O)cn([C@@H]4C[C@@H]4F)c3c2Cl)CC12CC2` [SITAFLOXACIN ANHYDROUS], in the data set with Escherichia coli [24], the minimal inhibitory concentration (MIC) is at most 0.006 µg/mL.
With `NC1CCN(c2nc3c(cc2F)c(=O)c(C(=O)O)cn3-c2ccc(F)cc2F)C1` (stereo not drawn) [TOSUFLOXACIN], the minimum inhibitory concentration (MIC) with Escherichia coli [17] was at most 0.003 µg/mL.
